Results as given in patent publication US20120263780A1, “Carbohydrate Entrapped Active Agent Delivery Composition and Articles Using the Same” (priority 2009, published 2012).

What was measured:
[1] = system: Staphylococcus aureus (ATCC #6538); test: Shake flask test ASTM E2149-01, anti-bacterial activity of thymol-treated coform substrates; format: cell-based; conditions: 7 day old sample, 1 hour exposure
Description: Five sections of coform material approximately 17 cm by 17 cm were prepared and weighed to determine the amount of thymol needed for loading of thymol at a weight percent of 0.3%, 0.6% and 1.0%. The determined quantity of thymol to provide thymol as a percentage was placed in an excess (39.0 grams) of ethanol to be dissolved. The coform substrates were placed into a plastic bag and the ethanol/thymol mixture was added. Using a cylindrical glass jar rolled on the outside of the sealed plastic bag, the sheets were rolled to evenly express the liquid throughout the coform squares. The coform was then removed from the bag and placed in a fume hood to allow the ethanol to evaporate off. The remaining dry sheets containing thymol were removed from the hood after one hour and placed in a dry plastic bag. Samples were aged 7 days and tested for anti-bacterial activity. To determine the anti-bacterial activity of the samples after 7 days, the shake flask test of ASTM […]-01 “Standard Test Method for Determining the Antimicrobial Activity of Immobilized Antimicrobial Agents Under Dynamic Contact Conditions” was used. Approximately 1 gram samples of thymol-treated and untreated coform substrates were placed in individual capped flasks containing approximately 10^5 CFU of a Staphylococcus aureus (ATCC #6538) in phosphate buffered saline. Flasks were shaken at maximum speed on a wrist-action shaker for 1 hour. […] The active agent thymol has volatilized off of the sample within the 7 day time period.

[2] = system: Staphylococcus aureus (ATCC #6538); test: Zone of inhibition testing on agar plates; format: cell-based; conditions: for Observed Zone of Inhibition (mm): 7 day old sample; for Zone (mm): thymol powder in well
Description: The samples prepared above were cut into 10 mm-diameter circular sections of thymol-treated and untreated material. These samples were placed on a freshly streaked sample of staphylococcus aureus on trypticase soy agar. After 24 hours incubation at 37° C., plates were measured for zones of inhibitions surrounding the samples. To calculate the zone of inhibition, the test material was brought into contact with a known population of test microorganisms on an agar plate for a specified period of time. At the end of the contact time the area of inhibited colony formation around the test material was measured. The size of this area of no growth was a measure of leaching of the antimicrobial agent from the test material. In this procedure, the test material was cut into small discs and placed on an agar plate evenly spread with a test microorganism. The plates were incubated for 24 hours at ideal growth conditions. Following incubation, the diameter of the circle of no growth around the disc was measured. The zone of inhibition was reported as the difference between the sample disc diameter and the average of the measured no growth zone diameters. Materials and Reagents • Microorganisms: frozen stock of Staphylococcus aureus (ATCC 6538). • Mueller-Hinton agar (MHA) plates or equivalent plated media. Prepare following manufacturer's directions. Store at 4±2° C. Alternatively pre-made plates can be utilized. • Mueller-Hinton broth (MHB) or equivalent liquid media. Prepare following manufacturers directions. Store at 4±2° C. Alternately pre-made media can be utilized. • Sterile cotton swabs or equivalent. • Sterile forceps. • Positive control disc: Vanocymicin susceptibility discs (6 mm), 30 μg/disc (BD and Company; Sparks, Md.). • Test material, cut into 8 mm discs. • Calipers or other measuring device. • Other ancillary lab supplies. 2. Staphylococcus aureus (ATCC 6538) is inoculated from an overnight plate or MHB into 5 ml of sterile MHB in a 35° C. incubator for 18-24 hrs. 3. The overnight culture is then adjusted using MHB to the 0.5 McFarland barium sulphate standards (1×10^8 CFU/ml) or approximately 0.15 OD with a 0.2 cm light path at 660 nanometer. 1. Pre-warm, to room temperature, MHA plates. […] 3. Moisten a sterile applicator swab in the standardized cell suspension and express any excess moisture by rotating the swab against the glass above the liquid in the tube. Inoculate the entire surface of each plate, inoculating the surface completely in three different directions to ensure uniform growth. 5. Store the inoculated plates at room temperature for 10-15 minutes to allow the medium to absorb the moisture from the inoculum. 6. Apply discs of test material to the surface of the inoculated medium with a sterile forceps and tap them to ensure that they are in complete contact with the agar surface. A positive control (vancomycin disc) and negative control (uncoated disc) should be used on each plate. 7. Invert the inoculated plates and incubate them at 35° C. for 18-24 hours. 8. Examine the plates from the back, viewed against a black background and illuminated with reflected light. With calipers, measure the diameter of each zone of inhibition to the nearest whole millimeter. Zone of Inhibition=diameter of no growth area−diameter of disc First, exemplary Delivery Compositions 1 and 2 were created. A sucrose blend was melted on a stove top to prepare a carbohydrate matrix. An active agent was added to the molten sucrose to provide a 2% loading of thymol. After the mixture was melted, analysis was performed to determine the amount of thymol retained within the sucrose. Delivery Composition 1 contained approximately 0.72 wt. % thymol and Delivery Composition 2 contained approximately 0.74 wt. % thymol. Both Delivery Compositions 1 and 2 were placed in a well in a media with a plate inoculated with Staphylococcus aureus (ATCC #6538) and a zone of inhibition for each sample was measured as described above. […]

[3] = 0.3% thymol add-on to coform substrate
[4] = 0.6% thymol add-on to coform substrate
[5] = 1% thymol add-on to coform substrate

`Cc1ccc(C(C)C)c(O)c1` [Thymol, thymol] was tested, and the “Log10 Reduction of Bacteria” value [1, 3] was “No Reduction”, the “Log10 Reduction of Bacteria” value [1, 4] was “No Reduction” and the “Log10 Reduction of Bacteria” value [1, 5] was “No Reduction”. For the same molecule, the “Observed Zone of Inhibition (mm)” value [2, 3] was 0 mm, the “Observed Zone of Inhibition (mm)” value [2, 4] was 0 mm and the “Observed Zone of Inhibition (mm)” value [2, 5] was 0 mm. For the same molecule, the zone of inhibition ([2]; neat powder, various amounts, after 1 day) was 10-15 mm, the “Zone (mm)” value ([2]; weight 0.0018 grams) was 10 mm and the “Zone (mm)” value ([2]; weight 0.0045 grams) was 12 mm. The “Zone (mm)” value ([2]; weight 0.0353 grams) was 13 mm, the “Zone (mm)” value ([2]; weight 0.0789 grams) was 12 mm and the “Zone (mm)” value ([2]; weight 0.1609 grams) was 15 mm.
